Experimental findings from ChEMBL document CHEMBL1146252, “Discovery and SAR study of novel dihydroquinoline-containing glucocorticoid receptor agonists” (Bioorg Med Chem Lett, 2007) are described below.

In data set [1] the target is T1, Glucocorticoid receptor (Homo sapiens, UniProt P04150).
T1 sequence (P04150 whole entry): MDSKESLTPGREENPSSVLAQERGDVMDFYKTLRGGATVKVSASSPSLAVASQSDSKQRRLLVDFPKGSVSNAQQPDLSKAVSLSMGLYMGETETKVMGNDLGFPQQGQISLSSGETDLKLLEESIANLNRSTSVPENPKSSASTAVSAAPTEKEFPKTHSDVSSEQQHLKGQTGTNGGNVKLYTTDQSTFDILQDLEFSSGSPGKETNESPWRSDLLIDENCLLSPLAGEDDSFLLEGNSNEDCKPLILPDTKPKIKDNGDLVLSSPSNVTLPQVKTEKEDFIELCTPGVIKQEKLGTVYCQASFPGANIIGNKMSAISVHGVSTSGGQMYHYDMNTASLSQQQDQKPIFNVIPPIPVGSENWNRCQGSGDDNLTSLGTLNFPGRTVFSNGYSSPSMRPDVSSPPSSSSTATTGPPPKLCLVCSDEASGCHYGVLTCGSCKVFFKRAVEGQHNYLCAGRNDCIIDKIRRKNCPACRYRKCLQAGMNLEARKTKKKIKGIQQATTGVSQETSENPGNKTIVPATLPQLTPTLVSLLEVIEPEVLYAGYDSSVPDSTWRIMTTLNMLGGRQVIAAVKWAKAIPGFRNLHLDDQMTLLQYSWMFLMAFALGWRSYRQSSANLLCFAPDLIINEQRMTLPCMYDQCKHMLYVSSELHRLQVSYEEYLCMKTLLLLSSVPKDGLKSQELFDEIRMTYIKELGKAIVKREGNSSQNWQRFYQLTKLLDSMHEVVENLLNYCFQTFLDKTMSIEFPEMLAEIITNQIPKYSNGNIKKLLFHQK
The data set is described as follows: Displacement of Dexamethasone from human glucocorticoid receptor by fluorescence polarization assay.

The target of data set [2] is T2, Progesterone receptor (Homo sapiens, UniProt P06401).
T2 sequence (P06401 whole entry): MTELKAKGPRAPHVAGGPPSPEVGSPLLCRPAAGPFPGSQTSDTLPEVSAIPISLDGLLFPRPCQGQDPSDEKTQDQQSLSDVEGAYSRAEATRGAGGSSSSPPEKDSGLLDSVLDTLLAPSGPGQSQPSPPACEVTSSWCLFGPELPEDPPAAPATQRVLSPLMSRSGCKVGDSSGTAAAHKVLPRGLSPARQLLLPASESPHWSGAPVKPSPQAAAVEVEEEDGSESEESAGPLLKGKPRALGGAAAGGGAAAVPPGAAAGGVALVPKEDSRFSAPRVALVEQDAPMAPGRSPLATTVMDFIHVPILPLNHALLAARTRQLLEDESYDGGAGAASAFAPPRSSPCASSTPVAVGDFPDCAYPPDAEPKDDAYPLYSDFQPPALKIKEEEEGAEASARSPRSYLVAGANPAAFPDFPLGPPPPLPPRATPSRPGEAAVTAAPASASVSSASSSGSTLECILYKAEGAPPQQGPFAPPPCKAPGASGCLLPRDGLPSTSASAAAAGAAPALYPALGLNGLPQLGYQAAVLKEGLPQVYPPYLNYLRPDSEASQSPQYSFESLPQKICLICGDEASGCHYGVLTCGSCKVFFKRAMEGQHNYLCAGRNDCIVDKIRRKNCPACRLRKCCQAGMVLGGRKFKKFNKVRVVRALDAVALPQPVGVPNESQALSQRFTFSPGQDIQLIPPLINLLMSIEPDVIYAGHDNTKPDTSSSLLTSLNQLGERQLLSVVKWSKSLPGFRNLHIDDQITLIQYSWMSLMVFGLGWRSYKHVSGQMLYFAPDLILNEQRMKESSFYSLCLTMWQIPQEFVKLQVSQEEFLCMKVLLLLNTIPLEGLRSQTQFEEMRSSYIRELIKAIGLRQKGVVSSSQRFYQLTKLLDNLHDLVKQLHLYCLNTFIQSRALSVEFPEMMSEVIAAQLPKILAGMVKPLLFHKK
The data set can be described thus: Displacement of RU486 from human progesterone receptor by fluorescence polarization assay.

Data set [3] concerns the target T3, Mineralocorticoid receptor (Homo sapiens, UniProt P08235).
T3 sequence (P08235 whole entry): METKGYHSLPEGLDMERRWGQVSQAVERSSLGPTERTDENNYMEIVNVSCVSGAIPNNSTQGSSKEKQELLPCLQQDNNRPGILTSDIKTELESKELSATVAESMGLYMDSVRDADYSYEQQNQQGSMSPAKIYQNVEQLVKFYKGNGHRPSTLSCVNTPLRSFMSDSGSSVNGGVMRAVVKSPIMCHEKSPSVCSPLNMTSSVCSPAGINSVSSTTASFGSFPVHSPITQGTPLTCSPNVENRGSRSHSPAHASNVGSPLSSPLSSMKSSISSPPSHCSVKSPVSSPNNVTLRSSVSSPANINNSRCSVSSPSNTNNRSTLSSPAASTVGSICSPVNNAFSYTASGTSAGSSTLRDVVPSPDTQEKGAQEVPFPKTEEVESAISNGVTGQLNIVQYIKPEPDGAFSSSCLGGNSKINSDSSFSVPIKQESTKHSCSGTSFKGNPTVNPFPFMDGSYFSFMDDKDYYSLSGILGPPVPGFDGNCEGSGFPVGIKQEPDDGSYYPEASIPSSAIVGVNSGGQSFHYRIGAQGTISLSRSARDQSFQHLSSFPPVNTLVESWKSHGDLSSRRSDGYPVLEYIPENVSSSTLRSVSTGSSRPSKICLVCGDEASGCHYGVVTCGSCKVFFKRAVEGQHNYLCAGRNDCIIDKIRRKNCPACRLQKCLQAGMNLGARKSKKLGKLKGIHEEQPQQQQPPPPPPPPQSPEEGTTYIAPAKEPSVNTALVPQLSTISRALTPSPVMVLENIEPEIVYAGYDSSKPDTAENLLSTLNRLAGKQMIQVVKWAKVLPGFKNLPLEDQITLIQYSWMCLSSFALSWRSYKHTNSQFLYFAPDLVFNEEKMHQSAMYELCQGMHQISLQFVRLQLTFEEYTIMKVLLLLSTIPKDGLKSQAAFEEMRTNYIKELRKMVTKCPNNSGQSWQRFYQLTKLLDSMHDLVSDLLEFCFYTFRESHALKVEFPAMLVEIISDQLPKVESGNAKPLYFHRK
The data set is described as follows: Displacement of Dexamethasone from human mineralocorticoid receptor by fluorescence polarization assay.

Data set [4] has as its system Fibroblast. The data set can be described thus: Inhibition of IL1-induced IL6 production in foreskin fibroblasts after 24 hrs. Format: functional, cell-based.
Data set [5] deals with T4, Estrogen receptor (Homo sapiens, UniProt P03372).
T4 sequence (P03372 whole entry): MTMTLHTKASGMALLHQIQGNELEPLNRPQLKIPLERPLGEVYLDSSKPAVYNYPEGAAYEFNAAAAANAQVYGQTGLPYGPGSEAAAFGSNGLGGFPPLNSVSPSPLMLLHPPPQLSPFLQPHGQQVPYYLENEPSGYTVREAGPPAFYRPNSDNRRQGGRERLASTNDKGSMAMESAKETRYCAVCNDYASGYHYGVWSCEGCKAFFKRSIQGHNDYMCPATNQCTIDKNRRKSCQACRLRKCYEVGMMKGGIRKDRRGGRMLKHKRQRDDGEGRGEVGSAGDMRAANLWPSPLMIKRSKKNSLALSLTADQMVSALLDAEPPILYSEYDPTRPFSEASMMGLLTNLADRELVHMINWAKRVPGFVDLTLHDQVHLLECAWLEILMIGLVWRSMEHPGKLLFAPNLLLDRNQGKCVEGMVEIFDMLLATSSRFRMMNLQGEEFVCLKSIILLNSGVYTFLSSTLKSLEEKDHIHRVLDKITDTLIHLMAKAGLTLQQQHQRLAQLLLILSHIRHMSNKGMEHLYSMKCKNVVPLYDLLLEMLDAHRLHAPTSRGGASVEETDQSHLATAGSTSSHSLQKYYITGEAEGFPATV
The data set is described as follows: Displacement of fluormone from human estrogen receptor by fluorescence binding assay.

Data set [6] is described as follows: Metabolic stability in human liver microsomes. Format: ADME, Microsome.
The test system of data set [7] is Fibroblast. The data set can be described thus: Inhibition of IL1-induced IL6 production in foreskin fibroblasts at 2000 nM after 24 hrs relative to Dexamethasone. Format: functional, Homo sapiens.

SMILES strings stand for the structures. The source made the active and inactive calls. No cut-off for these calls is given here.

Turning to `COc1ccccc1-c1ccc2c(c1)C(C(C)OCCc1cccc(Cl)c1)=CC(C)(C)N2` (stereo not drawn), the IC50 came to 275 nM in data set [1] and 1900 nM in data set [2].

As for `COc1ccccc1-c1ccc2c(c1)C(C(C)OCCCc1ccccc1)=CC(C)(C)N2` (stereo not drawn), the concentration for half-maximal inhibition (IC50) in data set [1] was 260 nM; in data set [2], more than 2000 nM.

Take `C=CCSCC1=CC(C)(C)Nc2ccc(-c3cc(F)ccc3OC)cc21`: the concentration for half-maximal inhibition (IC50) in data set [3] and in data set [5] was more than 2000 nM in each case. Moreover, the outcome in data set [4] (Homo sapiens) was inactive. The molecule further had a half-life in data set [6] of 12 min.

Consider `C=CCOC(CCc1ccccc1)C1=CC(C)(C)Nc2ccc(-c3ccccc3OC)cc21` (stereo not drawn), for which the IC50 in data set [1] was more than 2000 nM; in data set [2], 1000 nM.

For `COc1ccc(F)cc1-c1ccc2c(c1)C(C(C)OCCc1ccccc1)=CC(C)(C)N2` (stereo not drawn), the half-maximal inhibitory concentration (IC50) is 195 nM in data set [1] and 1300 nM in data set [2].

As for `COc1ccc(F)cc1-c1ccc2c(c1)C(CSCCc1ccccc1)=CC(C)(C)N2`, the outcome in data set [4] (Homo sapiens) was inactive. The same molecule showed an IC50 in data set [5] of more than 2000 nM. For the same molecule, the half-life in data set [6] came out at 17 min.

As to `C=CCOC(C)C1=CC(C)(C)Nc2ccc(-c3cc(F)ccc3OC)cc21` (racemic), the IC50 came out at 970 nM in data set [3], 34 nM in data set [1] and 451 nM in data set [2]. The half-life in data set [6] was determined as 6 min.

`C=CCOC(Cc1ccccc1)C1=CC(C)(C)Nc2ccc(-c3ccccc3OC)cc21` (stereo not drawn): the IC50 in data set [1] was more than 2000 nM; in data set [2], 1200 nM.

In the case of `COc1ccccc1-c1ccc2c(c1)C(C(C)OC)=CC(C)(C)N2` (stereo not drawn), the IC50 in data set [1] was 1060 nM; in data set [2] it was 540 nM.

Consider `C=CCSC(C)C1=CC(C)(C)Nc2ccc(-c3ccccc3OC)cc21` (stereo not drawn), for which the results for the IC50 in data set [1] and in data set [2] were 116 nM and 600 nM, respectively.

For `COc1ccccc1-c1ccc2c(c1)C(C(C)OCCC1CCCCC1)=CC(C)(C)N2` (stereo not drawn), the IC50 is 400 nM in data set [1] and more than 2000 nM in data set [2].

On to `CC/C=C/COC(C)C1=CC(C)(C)Nc2ccc(-c3ccccc3OC)cc21` (stereo not drawn), for which the IC50 turned out to be 565 nM in data set [1] and 1600 nM in data set [2].

Consider `COc1ccccc1-c1ccc2c(c1)C(C(C)OC/C=C/c1ccccc1)=CC(C)(C)N2` (stereo not drawn), for which the IC50 was 980 nM in data set [1] and more than 2000 nM in data set [2].

Take `C=CCOC(CCC)C1=CC(C)(C)Nc2ccc(-c3ccccc3OC)cc21` (stereo not drawn): the IC50 in data set [1] and in data set [2] was more than 2000 nM throughout.

Turning to `Br.C=CCOC(C)C1=CC(C)(C)Nc2ccc(-c3cc(F)ccc3OC)cc21` (single isomer, unassigned; (+)), the IC50 in data set [3] was 1100 nM; in data set [4] (fibroblast), 170 nM; in data set [5], more than 2000 nM; in data set [1] it was 40 nM; in data set [2], 170 nM. In data set [7] (Homo sapiens, Fibroblast, 24 h), the inhibition at 2 µM stood at 28%. The molecule also yielded a half-life in data set [6] of 6 min.

As for `COc1ccccc1-c1ccc2c(c1)C(C(C)OCCc1ccc(Cl)cc1)=CC(C)(C)N2` (stereo not drawn), the IC50 in data set [1] was 185 nM; in data set [2], 930 nM.

As to `C=CCOC(C)C1=CC(C)(C)Nc2ccc(-c3cc(F)ccc3OC)cc21.Cl` (single isomer, unassigned; (-)), the IC50 is more than 2000 nM in data set [3]; 260 nM in data set [4] (Homo sapiens, Fibroblast, 24 h); 110 nM in data set [1]; 620 nM in data set [2]. In data set [7], this molecule registered an Inhibition of 46%. Further, in data set [6], the half-life amounted to 5 min.

Regarding `C=CCOC(C)C1=CC(C)(C)Nc2ccc(-c3ccccc3OC)cc21` (stereo not drawn), the IC50 in data set [1] is 116 nM; in data set [2] it was 480 nM.

For the molecule `COc1ccccc1-c1ccc2c(c1)C(C(C)OCC=C(C)C)=CC(C)(C)N2` (stereo not drawn), the IC50 was determined as 395 nM in data set [1] and 980 nM in data set [2].

As to `C=CC[S+]([O-])CC1=CC(C)(C)Nc2ccc(-c3ccccc3OC)cc21` (stereo not drawn), the IC50 in data set [1] and in data set [2] was more than 2000 nM each time.

Take `COc1ccccc1-c1ccc2c(c1)C(C(C)OCCc1ccccc1Cl)=CC(C)(C)N2` (stereo not drawn): the IC50 is 290 nM in data set [1] and more than 2000 nM in data set [2].

Consider `C/C=C/COC(C)C1=CC(C)(C)Nc2ccc(-c3ccccc3OC)cc21` (stereo not drawn), for which the figures for the IC50 in data set [1] and in data set [2] were 210 nM and 1300 nM, respectively.

`C=CCOC(CC)C1=CC(C)(C)Nc2ccc(-c3ccccc3OC)cc21` (stereo not drawn): the figures for the IC50 in data set [1] and in data set [2] were 355 nM and 330 nM, respectively.

As to `C=CCOC(C1=CC(C)(C)Nc2ccc(-c3ccccc3OC)cc21)C(C)C` (stereo not drawn), the IC50 was 710 nM in data set [1] and 950 nM in data set [2].

For the molecule `C=CCOC(CC=C)C1=CC(C)(C)Nc2ccc(-c3ccccc3OC)cc21` (stereo not drawn), the IC50 was more than 2000 nM in data set [1] and 440 nM in data set [2].

On to `COc1ccccc1-c1ccc2c(c1)C(C(C)OCCc1ccccc1)=CC(C)(C)N2` (stereo not drawn), for which the IC50 in data set [1] was 404 nM; in data set [2], more than 2000 nM.

As to `C=CCOC(C1=CC(C)(C)Nc2ccc(-c3ccccc3OC)cc21)c1ccccc1` (stereo not drawn), the half-inhibitory concentration (IC50) in data set [1] and in data set [2] was more than 2000 nM in each case.
